Laboratory results as given in US5646188A, “Polyamine derivatives of 1-aminoindan” (priority 1995, dated 1997).
Like-named read-outs stand apart in the source and are kept apart here.

Legend:
[1] = system: Cultures of Dissociated Neonatal Rat Cerebellum; assay: Reversal of NMDA Induced Cell Death in cultures of dissociated neonatal rat cerebellum; assay type: cell-based; conditions: for PERCENT PROTECTION: cell survival minus the NMDA effect (30%); for viability at 0.005 µM: 0.005 μM + NMDA (1 mM, 3 hours); for viability at 0.01 µM: 0.010 μM + NMDA (1 mM, 3 hours); for viability at 0.1 µM: 0.100 μM + NMDA (1 mM, 3 hours); for viability at 1 µM: 1.000 μM + NMDA (1 mM, 3 hours)
Description: (§1) The cerebellum was aseptically dissociated from 6 or 7-day old rat pups and placed in a 15 ml sterile plastic conical tube containing 3 ml of Dulbecco's modified Eagle's medium (DMEM) with a high glucose concentration ([…]) and 2 mM (v/v) L-glutamine and an antibiotic antimitotic mixture. The cerebella were then dissociated after 20-25 passages through a sterile 13 gauge, 10 cm long stainless steel needle attached to a 5 ml syringe with an inserted 45 micrometer pore nylon sieve. The dissociated cells were centrifuged at 200 g for 5 minutes.
Cells were plated at a density of 200/mm^2 on poly-L-lysine coated surfaces. […] The plated cells were covered with enriched medium and incubated at 37° C. in an atmosphere of 5% CO2 in air and 97% humidity. […] Each test compound was tested in duplicate. Toxic-dose response was determined for each compound over a range from 0.005-1000 micromole. Four groups were run in each set of experiments;
I. Control, consisting of enriched media alone,
II. N-methyl-D-aspartate (NMDA, 1 mM for 3 hours) as the cytotoxic challenge,
III. Test compound plus NMDA, and
IV. Positive control, spermine, spermidine or putrescine (0.01 micromoles) plus NMDA.
Surviving cells in Culture are measured relative to control (100%) as described above. Percent protection is the Cell Survival for the test compound minus the NMDA effect. […] The Effective Protection was calculated as the percent of the Percent Protection (X) divided by the maximal protection value (e.g. X×100/70).

[2] = in vitro; conditions: rat, cerebellum cell culture
Description: as §1, with “minutes. […] Cell viability was determined by the tryptan blue exclusion test.” for “minutes.”
Cells were plated at a density of 200/mm^2 on poly-L-lysine coated surfaces. Poly-L-lysine coated glass coverslips were prepared at least one hour in advance of plating by immersing sterile coverslips in sterile distilled water solution containing 15 microgram/ml poly-L-lysine, and washing in sterile water just prior. to use. […] After three days in culture, the media was replaced with media containing the desired test compound. Each test compound was tested in duplicate. Toxic-dose response was determined for each compound over a range from 0.005-1000 micromole. Four groups were run in each set of experiments;
Nerve cell survival was evaluated by phase contrast microscopy and tryptan blue staining after 24 hours.
Toxic dose-response curves were compiled using the protocol described above.

[3] = system: pyramidal neurons throughout the CA1 layer of the anterior hippocampus; assay: Global Brain Ischemia In Gerbils; assay type: in vivo, mongolian gerbils; conditions: Meriones unguiculatus, Pyramidal neuron, ip, 336 h, read-out: PERCENT PROTECTION
Description: Male mongolian gerbils, aged 2.5-5 months, housed 4-8 in a cage, were supplied freely with food and water and maintained at 24° C. with a 12 hour day/night cycle.
For surgery the animals were anesthetized with halothane (1.5% in 100% O2) and the common carotid arteries exposed bilaterally through a midline ventral neck incision. Each artery was clamped for 5 minutes with aneurysm clips to produce global brain ischemia. The anesthesia was discontinued upon clamping. After 5 minutes the clamps were removed and the wound closed with skin clips.
For treatment, the test compound or vehicle was injected intra-peritoneally(ip) in a volume of 50 microlitres of solvent per 10 g body weight. The first injection was given two minutes after clamp removal, and thereafter daily for the next 2 post-operative days (total of 3 injections).
Seven groups each of 4-8 animals were compared:
I. Control; (sham- or unoperated and saline treated),
II. Vehicle treated, unoperated (when solvent is other than saline),
III. Ischemia--untreated or saline treated),
IV. Ischemia--vehicle treated (when solvent is other than saline),
V. Ischemia--Test compound treated, one sub-group per concentration tested,
VI. Ischemia and pentobarbital (40 mg/kg) as positive control).
Analysis of neuronal damage was performed 14 days post-ischemia by counting pyramidal neurons throughout the CA1 layer of the anterior hippocampus in […] thick (paraffin) coronal brain sections stained with hematoxylin and erosin.
Percent Protection values represent the fraction of hippocampi protected from ischemia in a group of animals treated with the stated dose of compound.

[4] = Rattus norvegicus, 24 hours, read-out: SURVIVING CELL IN CULTURE (relative to control, 100%)
[5] = 10.0 mg/kg ip, 3 daily injections, 14 days post-ischemia, fraction of hippocampi protected
[6] = 1.0 mg/kg ip, 3 daily injections, 14 days post-ischemia, fraction of hippocampi protected

SMILES	PERCENT PROTECTION ([1]; 0.005 μM + NMDA)	PERCENT PROTECTION ([1]; 0.010 μM + NMDA)	PERCENT PROTECTION ([1]; 0.100 μM + NMDA)	viability at 0.005 µM [1, 4]	viability at 0.01 µM [1, 4]	viability at 0.1 µM [1, 4]	CC50 at 24 h [2]	responders at 10 mg/kg [3, 5]	responders at 1 mg/kg [3]	PERCENT PROTECTION ([1]; 1.000 μM + NMDA)	viability at 1 µM [1, 4]	responders at 1 mg/kg [3, 6]	responders at 0.1 mg/kg [3]	responders at 10 mg/kg [3]	PERCENT PROTECTION ([1]; 10.00 μM + NMDA)	viability at 10 µM ([1]; Rattus norvegicus, 10.00 μM + NMDA (1 mM, 3 hours), 24 hours, read-out: SURVIVING CELL IN CULTURE (relative to control, 100%))
NCCCCN(CCCCN)C1CCc2ccccc21 (racemic) [Compound 2711, racemic N,N-di(4-amino-n-butyl)-1-aminoindan]	44%	38%	32%	74%	68%	62%	60 µM	86%	50%							
N[C@@H]1C[C@@H](N)c2ccccc21 (relative stereo) [Compound 2716, trans 1,3-diaminoindan]	35%	0%	-5%	65%	30%	25%	0.7 µM	0%		0%	30%	50%				
N[C@@H]1CCc2ccccc21 [(R)-1-aminoindan, reference compound]	50%	0%	-2%				175 µM		25%				25%	25%		
N[C@H]1CCc2ccccc21 [(S)-1-aminoindan, reference compound]									50%				0%	75%		
NCCCNC1CCc2ccccc21 (centres unmarked) [Compound 2709, N-(3-aminopropyl)-1-aminoindan]	-4%	23%	29%	26%	53%	59%	50 µM	31%		13%	43%	12%			8%	38%
NCCCCNC1CCc2ccccc21 (centres unmarked) [Compound 2710]			42%			72%	30 µM	37%		40%	70%	25%				
N[C@@H]1C[C@H](N)c2ccccc21 [Compound 2715, cis 1,3-diaminoindan]	19%		12%	49%		42%	10 µM	50%	75%	2%	32%					
NCCCCNCCCNC1CCc2ccccc21 (centres unmarked) [Compound 2720]	42%	8%	2%	72%	38%	32%	0.2 µM	58%								
NCCCNCCCCNCCCNC1CCc2ccccc21 (centres unmarked) [Compound 2721]	-2%	-4%		28%	26%		1 µM	67%				12%				
